Activity calls are given as the source filed them. The calls are words filed in the database; no cut-off is given here.
Key:
[1] = target: T1, Xanthine dehydrogenase/oxidase (Homo sapiens, UniProt P47989); assay: Inhibition of XOR (unknown origin) using xanthine as substrate incubated for 3 mins followed by xanthine addition by spectroscopy based analysis
Mus musculus [2] = assay: Hypouricemic activity in hypoxanthine/potassium oxonate-induced hyperuricemia mouse model assessed as reduction in uric acid level at 5 mg/kg, IG measured after 3 to 5 hrs; assay type: functional, organism-based; conditions: time 3-5 hrs
Mus musculus [3] = assay: Hypouricemic activity in hypoxanthine/potassium oxonate-induced hyperuricemia mouse model assessed as reduction in serum uric acid level at 5 mg/kg, IG measured upto 9 hrs; assay type: functional, organism-based
[4] = target: T1, Xanthine dehydrogenase/oxidase; assay: Inhibition of XOR (unknown origin) using xanthine as substrate at 10 uM incubated for 3 mins followed by xanthine addition by spectroscopy based analysis relative to control; conditions: 0.05 h
Mus musculus [5] = assay: Hypouricemic activity in hypoxanthine/potassium oxonate-induced hyperuricemia mouse model assessed as reduction in uric acid level at 5 mg/kg, IG measured after 3 hrs; assay type: functional, organism-based

T1 sequence (P47989 whole entry): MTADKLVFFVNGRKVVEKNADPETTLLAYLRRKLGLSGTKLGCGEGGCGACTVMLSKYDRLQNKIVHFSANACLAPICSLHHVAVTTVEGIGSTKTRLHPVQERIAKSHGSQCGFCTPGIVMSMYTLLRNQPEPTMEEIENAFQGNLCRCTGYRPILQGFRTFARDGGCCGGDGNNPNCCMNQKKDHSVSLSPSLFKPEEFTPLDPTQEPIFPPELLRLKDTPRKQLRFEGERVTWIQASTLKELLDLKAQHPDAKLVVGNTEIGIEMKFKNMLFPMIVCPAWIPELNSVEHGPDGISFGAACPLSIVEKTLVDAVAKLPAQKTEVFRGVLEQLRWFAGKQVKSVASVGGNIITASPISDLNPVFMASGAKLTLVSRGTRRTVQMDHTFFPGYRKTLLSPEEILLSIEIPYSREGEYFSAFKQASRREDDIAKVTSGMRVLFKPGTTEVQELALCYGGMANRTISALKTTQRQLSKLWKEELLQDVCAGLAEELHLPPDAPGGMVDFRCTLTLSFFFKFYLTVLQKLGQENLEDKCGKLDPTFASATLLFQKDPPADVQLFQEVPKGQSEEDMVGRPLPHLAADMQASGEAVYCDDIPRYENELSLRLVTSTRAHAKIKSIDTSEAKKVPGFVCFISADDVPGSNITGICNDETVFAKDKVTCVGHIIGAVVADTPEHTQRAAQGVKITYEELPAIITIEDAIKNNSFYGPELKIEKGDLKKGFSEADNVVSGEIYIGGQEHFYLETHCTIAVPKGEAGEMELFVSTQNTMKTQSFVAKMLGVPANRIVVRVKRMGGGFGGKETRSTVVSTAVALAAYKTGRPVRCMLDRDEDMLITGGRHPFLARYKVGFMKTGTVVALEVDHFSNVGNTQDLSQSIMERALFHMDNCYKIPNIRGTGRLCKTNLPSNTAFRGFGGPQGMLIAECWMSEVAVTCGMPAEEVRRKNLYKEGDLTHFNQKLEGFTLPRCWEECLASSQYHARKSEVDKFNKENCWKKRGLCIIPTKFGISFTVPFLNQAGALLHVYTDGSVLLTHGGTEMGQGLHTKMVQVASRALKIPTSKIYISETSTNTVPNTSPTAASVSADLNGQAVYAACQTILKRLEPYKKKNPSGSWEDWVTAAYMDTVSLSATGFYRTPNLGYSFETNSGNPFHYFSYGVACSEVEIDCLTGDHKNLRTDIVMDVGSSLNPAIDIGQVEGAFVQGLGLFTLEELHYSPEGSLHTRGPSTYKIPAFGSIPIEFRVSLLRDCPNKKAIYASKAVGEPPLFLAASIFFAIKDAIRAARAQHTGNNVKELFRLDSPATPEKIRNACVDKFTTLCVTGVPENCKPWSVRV

SMILES | IC50 [1] [nM] | also measured
CCOc1ccc(-c2ccc(-c3nnn[nH]3)cc2)cc1 | 440 | 
CCOc1ccc(NC(=O)c2ccc(-c3nnn[nH]3)cc2)cc1 | 29.3 | Activity (Mus musculus [2]): Active; Activity (Mus musculus [3]): Active
CCCOc1ccc(NC(=O)c2ccc(-c3nnn[nH]3)cc2)cc1 | 160 | 
O=C(Nc1ccc(Cl)cc1)c1ccc(-c2nnn[nH]2)cc1 | 26.3 | Activity (Mus musculus [2]): Active; Activity (Mus musculus [3]): Active
c1cc(-c2ccc(-c3nnn[nH]3)cc2)co1 |  | inhibition at 10 µM [4]: < 50%
Cc1nc(-c2ccc(OCC(C)C)c(C#N)c2)sc1C(=O)O [FEBUXOSTAT] | 6.91 | Activity (Mus musculus [5]): Active
CCOc1ccc(CNC(=O)c2ccc(-c3nnn[nH]3)cc2)cc1 | 370 | 
c1cc(-c2ccc(-c3nnn[nH]3)cc2)cs1 |  | inhibition at 10 µM [4]: < 50%
c1ncc(-c2ccc(-c3nnn[nH]3)cc2)cn1 | 920 | 
CC(C)(C)c1ccc(-c2ccc(-c3nnn[nH]3)cc2)cc1 | 4230 | 
CCOc1ccccc1-c1ccc(-c2nnn[nH]2)cc1 |  | inhibition at 10 µM [4]: < 50%
CC(C)Oc1ccc(NC(=O)c2ccc(-c3nnn[nH]3)cc2)cc1 | 55 | Activity (Mus musculus [2]): Active; Activity (Mus musculus [3]): Active
c1cc(-c2ccc(-c3nnn[nH]3)cc2)n[nH]1 |  | inhibition at 10 µM [4]: < 50%
O=C(O)c1cc(-c2ccc(-c3nnn[nH]3)cc2)ccc1Cl | 720 | 
O=C(O)c1ccc(-c2ccc(-c3nnn[nH]3)cc2)cc1Cl | 410 | 
COc1ccc(NC(=O)c2ccc(-c3nnn[nH]3)cc2)cc1 | 40 | 

Second part, led by results:

IC50 [1] [nM] | SMILES | also measured
540 | O=Cc1cc(Cl)ccc1-c1ccc(-c2nnn[nH]2)cc1 | 
2090 | COc1cccc(-c2ccc(-c3nnn[nH]3)cc2)c1 | 
180 | CC(=O)c1ccc(-c2ccc(-c3nnn[nH]3)cc2)cc1 | 
1390 | COc1ccc(-c2ccc(-c3nnn[nH]3)cc2)cc1 | 
490 | O=Cc1ccccc1-c1ccc(-c2nnn[nH]2)cc1 | 
1690 | COc1ccccc1-c1ccc(-c2nnn[nH]2)cc1 | 

From ChEMBL document CHEMBL5352454, “Design, synthesis, and evaluation of tricyclic compounds containing phenyl-tetrazole as XOR inhibitors” (Eur J Med Chem, 2023)
